{"source": "patent US11117900B2", "about": "(Vertex Pharmaceuticals Incorporated, priority 2012, dated 2021)", "data": [{"tested_on": "HCT116 colorectal cancer cells", "experiment": "Cisplatin sensitization assay (96 h MTS cell viability);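 further: compound concentration needed to lower the IC50 of Cisplatin alone by a set fold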", "format": "cell-based", "conditions": "Cisplatin sensitization value", "method_in_brief": "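HCT116 cells were dosed simultaneously with compound and cisplatin as a full matrix of 2-fold serial dilutions from 10 μM top final concentration. Incubation was 96 h at 37° C., 5% CO2, followed by 1 h with MTS reagent for the viability read-out. Sensitization values were binned into +++, ++ and + categories.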", "values": [{"smiles": "Nc1nn2cc(F)cnc2c1C(=O)Nc1cncc(F)c1N1CCC(C(=O)N2CC3CNCC3C2)CC1", "note": "(centres unmarked) [I-G-51, 2-amino-6-fluoro-N-(5-fluoro-4-(4-(octahydropyrrolo[3,4-c]pyrrole-2-carbonyl)piperidin-1-yl)pyridin-3-yl)pyrazolo[1,5-a]pyrimidine-3-carboxamide]", "Cisplatin Sensitization Assay": "+++ (Compounds with a Cisplatin sensitization value of <0.02 μM are marked with “+++.”)"}, {"smiles": "CN1C2CCC1CN(C(=O)C1CCN(c3c(F)cncc3NC(=O)c3c(N)nn4cc(F)cnc34)CC1)C2", "note": "[I-G-52, 2-amino-6-fluoro-N-(5-fluoro-4-(4-(8-methyl-3,8-diazabicyclo[3.2.1]octane-3-carbonyl)piperidin-1-yl)pyridin-3-yl)pyrazolo[1,5-a]pyrimidine-3-carboxamide]", "Cisplatin Sensitization Assay": "+++ (Compounds with a Cisplatin sensitization value of <0.02 μM are marked with “+++.”)"}, {"smiles": "CN1CC2CC1CN2C(=O)C1CCN(c2c(F)cncc2NC(=O)c2c(N)nn3cc(F)cnc23)CC1", "note": "(centres unmarked) [I-G-53, 2-amino-6-fluoro-N-(5-fluoro-4-(4-(5-methyl-2,5-diazabicyclo[2.2.1]heptane-2-carbonyl)piperidin-1-yl)pyridin-3-yl)pyrazolo[1,5-a]pyrimidine-3-carboxamide]", "Cisplatin Sensitization Assay": "+++ (Compounds with a Cisplatin sensitization value of <0.02 μM are marked with “+++.”)"}, {"smiles": "CN1CCN(C(=O)C2(C)CCN(c3c(F)cncc3NC(=O)c3c(N)nn4cc(F)cnc34)CC2)CC1", "note": "[I-G-54, 2-amino-6-fluoro-N-(5-fluoro-4-(4-methyl-4-(4-methylpiperazine-1-carbonyl)piperidin-1-yl)pyridin-3-yl)pyrazolo[1,5-a]pyrimidine-3-carboxamide]", "Cisplatin Sensitization Assay": "+++ (Compounds with a Cisplatin sensitization value of <0.02 μM are marked with “+++.”)"}, {"smiles": "Cc1cncc(NC(=O)c2c(N)nn3cc(F)cnc23)c1N1CCC(C(=O)N2CCN(C)CC2)CC1", "note": "[I-G-55, 2-amino-6-fluoro-N-(5-methyl-4-(4-(4-methylpiperazine-1-carbonyl)piperidin-1-yl)pyridin-3-yl)pyrazolo[1,5-a]pyrimidine-3-carboxamide]", "Cisplatin Sensitization Assay": "+++ (Compounds with a Cisplatin sensitization value of <0.02 μM are marked with “+++.”)"}, {"smiles": "Cc1cncc(NC(=O)c2c(N)nn3cc(F)cnc23)c1N1CCC(C(=O)N2CCNCC2)CC1", "note": "[I-G-56, 2-amino-6-fluoro-N-(5-methyl-4-(4-(piperazine-1-carbonyl)piperidin-1-yl)pyridin-3-yl)pyrazolo[1,5-a]pyrimidine-3-carboxamide]", "Cisplatin Sensitization Assay": "+++ (Compounds with a Cisplatin sensitization value of <0.02 μM are marked with “+++.”)"}, {"smiles": "Nc1nn2cc(F)cnc2c1C(=O)Nc1cncc(F)c1N1CCC(C(=O)N2CC(N3CCCCC3)C2)CC1", "note": "[I-G-57, 2-amino-6-fluoro-N-(5-fluoro-4-(4-(3-(piperidin-1-yl)azetidine-1-carbonyl)piperidin-1-yl)pyridin-3-yl)pyrazolo[1,5-a]pyrimidine-3-carboxamide]", "Cisplatin Sensitization Assay": "+++ (Compounds with a Cisplatin sensitization value of <0.02 μM are marked with “+++.”)"}, {"smiles": "Nc1nn2cc(F)cnc2c1C(=O)Nc1cncc(F)c1N1CCC(C(=O)N2CC[C@H](N3CCCC3)C2)CC1", "note": "[I-G-58, (S)—N-(4-(4-([1,3′-bipyrrolidine]-1′-carbonyl)piperidin-1-yl)-5-fluoropyridin-3-yl)-2-amino-6-fluoropyrazolo[1,5-a]pyrimidine-3-carboxamide]", "Cisplatin Sensitization Assay": "+++ (Compounds with a Cisplatin sensitization value of <0.02 μM are marked with “+++.”)"}, {"smiles": "Nc1nn2cc(F)cnc2c1C(=O)Nc1cncc(F)c1N1CCC(C(=O)N2CCC(N3CCCC3)CC2)CC1", "note": "[I-G-59, 2-amino-6-fluoro-N-(5-fluoro-4-(4-(4-(pyrrolidin-1-yl)piperidine-1-carbonyl)piperidin-1-yl)pyridin-3-yl)pyrazolo[1,5-a]pyrimidine-3-carboxamide]", "Cisplatin Sensitization Assay": "+++ (Compounds with a Cisplatin sensitization value of <0.02 μM are marked with “+++.”)"}, {"smiles": "Nc1nn2cc(F)cnc2c1C(=O)Nc1cncc(F)c1N1CCC(C(=O)N2CCC(N3CCCCC3)CC2)CC1", "note": "[I-G-60, N-(4-(4-([1,4′-bipiperidine]-1′-carbonyl)piperidin-1-yl)-5-fluoropyridin-3-yl)-2-amino-6-fluoropyrazolo[1,5-a]pyrimidine-3-carboxamide]", "Cisplatin Sensitization Assay": "+++ (Compounds with a Cisplatin sensitization value of <0.02 μM are marked with “+++.”)"}, {"smiles": "C[C@H]1CN(C(=O)C2CCN(c3c(F)cncc3NC(=O)c3c(N)nn4cc(F)cnc34)CC2)CCN1", "note": "[I-G-61, (S)-2-amino-6-fluoro-N-(5-fluoro-4-(4-(3-methylpiperazine-1-carbonyl)piperidin-1-yl)pyridin-3-yl)pyrazolo[1,5-a]pyrimidine-3-carboxamide]", "Cisplatin Sensitization Assay": "+++ (Compounds with a Cisplatin sensitization value of <0.02 μM are marked with “+++.”)"}, {"smiles": "Nc1nn2cc(F)cnc2c1C(=O)Nc1cncc(F)c1N1CCC(C(=O)N2CCNC3CC32)CC1", "note": "(centres unmarked) [I-G-62, N-(4-(4-(2,5-diazabicyclo[4.1.0]heptane-2-carbonyl)piperidin-1-yl)-5-fluoropyridin-3-yl)-2-amino-6-fluoropyrazolo[1,5-a]pyrimidine-3-carboxamide]", "Cisplatin Sensitization Assay": "+++ (Compounds with a Cisplatin sensitization value of <0.02 μM are marked with “+++.”)"}, {"smiles": "CC1(O)CN(C(=O)C2CCN(c3c(F)cncc3NC(=O)c3c(N)nn4cc(F)cnc34)CC2)C1", "note": "[I-G-63, 2-amino-6-fluoro-N-(5-fluoro-4-(4-(3-hydroxy-3-methylazetidine-1-carbonyl)piperidin-1-yl)pyridin-3-yl)pyrazolo[1,5-a]pyrimidine-3-carboxamide]", "Cisplatin Sensitization Assay": "+++ (Compounds with a Cisplatin sensitization value of <0.02 μM are marked with “+++.”)"}, {"smiles": "Nc1nn2cc(F)cnc2c1C(=O)Nc1cncc(F)c1N1CCC(C(=O)N2CCC(N3CCCCC3)C2)CC1", "note": "(centres unmarked) [I-G-64, 2-amino-6-fluoro-N-(5-fluoro-4-(4-(3-(piperidin-1-yl)pyrrolidine-1-carbonyl)piperidin-1-yl)pyridin-3-yl)pyrazolo[1,5-a]pyrimidine-3-carboxamide]", "Cisplatin Sensitization Assay": "+++ (Compounds with a Cisplatin sensitization value of <0.02 μM are marked with “+++.”)"}, {"smiles": "CN1CCN(C(=O)C2CCN(c3c(F)cncc3NC(=O)c3c(N)nn4cc(F)cnc34)CC2)C2CC21", "note": "(centres unmarked) [I-G-65, 2-amino-6-fluoro-N-(5-fluoro-4-(4-(5-methyl-2,5-diazabicyclo[4.1.0]heptane-2-carbonyl)piperidin-1-yl)pyridin-3-yl)pyrazolo[1,5-a]pyrimidine-3-carboxamide]", "Cisplatin Sensitization Assay": "+++ (Compounds with a Cisplatin sensitization value of <0.02 μM are marked with “+++.”)"}, {"smiles": "Nc1nn2cc(F)cnc2c1C(=O)Nc1cncc(Cl)c1N1CCC(C(=O)N2CCN3CCC2CC3)CC1", "note": "[I-G-66, N-(4-(4-(1,4-diazabicyclo[3.2.2]nonane-4-carbonyl)piperidin-1-yl)-5-chloropyridin-3-yl)-2-amino-6-fluoropyrazolo[1,5-a]pyrimidine-3-carboxamide]", "Cisplatin Sensitization Assay": "+++ (Compounds with a Cisplatin sensitization value of <0.02 μM are marked with “+++.”)"}, {"smiles": "Nc1nn2cc(F)cnc2c1C(=O)Nc1cncc(F)c1N1CCC(C(=O)N2CCC(N3CCC3)CC2)CC1", "note": "[I-G-68, 2-amino-N-(4-(4-(4-(azetidin-1-yl)piperidine-1-carbonyl)piperidin-1-yl)-5-fluoropyridin-3-yl)-6-fluoropyrazolo[1,5-a]pyrimidine-3-carboxamide]", "Cisplatin Sensitization Assay": "+++ (Compounds with a Cisplatin sensitization value of <0.02 μM are marked with “+++.”)"}]}]}
